Data reported in patent publication US4035485A, “Polypeptides” (Imperial Chemical Industries Limited, priority 1974, dated 1977).

What was measured:
[1] = tested on: secretion of acidic gastric juice in dogs provided with a Heidenhain pouch and whose gastric secretion is stimulated with histamine; test: Inhibition of histamine-stimulated gastric acid secretion in Heidenhain pouch dogs, intravenous injection; type: in vivo, dog; conditions: for biological activity (inhibition of the secretion of acidic gastric juice), in words: dog, histamine-stimulated gastric secretion; for biological potency (amount causing a 50-70% inhibition of acid secretion): intravenous injection, dog with Heidenhain pouch, secretion stimulated to 60-80% of maximum by histamine infusion, expressed as a range of doses; for biological activity, inhibition of gastric secretion: single determination, single intravenous injection
Experimental: This test is used to determine the biological potency of the products, which is defined as the amount of the products which, on administration by intravenous injection to a dog provided with a Heidenhain pouch and whose secretion of gastric acid is stimulated to 60-80- % of the maximum level of secretion by an infusion of histamine, causes a 50-70% inhibition of that acid secretion. Some variation in the biological potency of a particular sample is found if it is measured in different dogs or on different occasions and so the result is best expressed as a range of doses. The physiological effect of inhibiting the secretion of acidic gastric juice is of value in the treatment of duodenal ulcers, and under the test conditions, no serious toxic effects were observed. The polypeptides of the invention also show ulcer healing properties in a standard test.
In the case of each process involving the use of a chromatography column, the eluate was collected in fractions consisting of a defined number of drops using an Ultrorac LKB 7,000 fraction collector (LKB Instruments Ltd., Croydon, Surrey, U.K.) and these fractions assayed for peptide material by measuring the U.V. absorption at 280 mμ. The material was then collected in fractions and the material assayed for biological activity as follows:
Dogs were prepared with separated denervated fundic pouches, and a subcutaneous infusion of histamine was used to stimulate gastric secretion to approximately 60-80% of the maximal rate [usually an infusion of a solution of 600 μg. of histamine (expressed as base) in 0.48 ml. per hour is adequate]. A known amount of test material was dissolved in isotonic saline and, when the dog was secreting gastric juice at a steady rate, a single intravenous injection of this material was administered.
The biological potency may be determined from the results obtained at several different doses.

[2] = Water solubility of the isolated lyophilized polypeptide; type: physicochemical; conditions: lyophilized white acidic polypeptide

| Substance | biological activity (inhibition of the secretion of acidic gastric juice), in words [1] | biological potency (amount causing a 50-70% inhibition of acid secretion) [1] [μg./kg.] | biological activity, inhibition of gastric secretion ([1]; dose equivalent to 0.7 μg./kg. of starting material) [%] | solubility in water [2] | biological activity (inhibition of the secretion of acidic gastric juice), in words ([1]; listed as polypeptide of the invention) | biological activity, inhibition of gastric secretion ([1]; dose equivalent to 0.6 μg./kg. of starting material) [%] |
| --- | --- | --- | --- | --- | --- | --- |
| material in fractions 38-52: peptide cleaved from β-urogastrone by AM protease; ratios Glu 1, Leu 1, Lys 1, Trp 2, Arg 1; N-terminal lysine (KWWELR; Epidermal growth factor; UniProt P01133 1018-1023, looked up, fragment) | biologically inactive | – | – | – | – | – |
| 3: polypeptide of Example 2 in which the cystine residues had been reduced to cysteine residues (NSDSECPLSHDGYCLHDGVCMYIEALDKYACNCVVGYIGERCQYRD; Epidermal growth factor cystines reduced; UniProt P01133 971-1016, looked up, fragment) [Example 3] | potent inhibitors | – | – | – | – | – |
| polypeptide having 47 amino-acid residues: 47-residue single-chain polypeptide with three disulphide bonds obtained by incubating β-urogastrone with AM protease (NSDSECPLSHDGYCLHDGVCMYIEALDKYACNCVVGYIGERCQYRDL; Epidermal growth factor; UniProt P01133 971-1017, looked up, fragment) | biologically active | 0.2 to 1 | 30 | water soluble | – | – |
| Example 2: 46-residue single-chain polypeptide with three internal disulphide bonds, from the 47-residue polypeptide by carboxypeptidase A cleavage of C-terminal leucine (NSDSECPLSHDGYCLHDGVCMYIEALDKYACNCVVGYIGERCQYRD; Epidermal growth factor; UniProt P01133 971-1016, looked up, fragment) | biologically active | 0.2 to 1 | – | water soluble | potent inhibitors | 42 |
